Experimental data from patent US9301961B2, “Autoimmune and inflammatory disorder therapy” (Katholieke Universiteit Leuven, K.U. Leuven R&D, priority 2011, dated 2016).

Biological target: T1, YSK4 (h) (Homo sapiens, UniProt Q56UN5)
T1 construct: purchased Millipore
T1 sequence (Q56UN5 1-1328): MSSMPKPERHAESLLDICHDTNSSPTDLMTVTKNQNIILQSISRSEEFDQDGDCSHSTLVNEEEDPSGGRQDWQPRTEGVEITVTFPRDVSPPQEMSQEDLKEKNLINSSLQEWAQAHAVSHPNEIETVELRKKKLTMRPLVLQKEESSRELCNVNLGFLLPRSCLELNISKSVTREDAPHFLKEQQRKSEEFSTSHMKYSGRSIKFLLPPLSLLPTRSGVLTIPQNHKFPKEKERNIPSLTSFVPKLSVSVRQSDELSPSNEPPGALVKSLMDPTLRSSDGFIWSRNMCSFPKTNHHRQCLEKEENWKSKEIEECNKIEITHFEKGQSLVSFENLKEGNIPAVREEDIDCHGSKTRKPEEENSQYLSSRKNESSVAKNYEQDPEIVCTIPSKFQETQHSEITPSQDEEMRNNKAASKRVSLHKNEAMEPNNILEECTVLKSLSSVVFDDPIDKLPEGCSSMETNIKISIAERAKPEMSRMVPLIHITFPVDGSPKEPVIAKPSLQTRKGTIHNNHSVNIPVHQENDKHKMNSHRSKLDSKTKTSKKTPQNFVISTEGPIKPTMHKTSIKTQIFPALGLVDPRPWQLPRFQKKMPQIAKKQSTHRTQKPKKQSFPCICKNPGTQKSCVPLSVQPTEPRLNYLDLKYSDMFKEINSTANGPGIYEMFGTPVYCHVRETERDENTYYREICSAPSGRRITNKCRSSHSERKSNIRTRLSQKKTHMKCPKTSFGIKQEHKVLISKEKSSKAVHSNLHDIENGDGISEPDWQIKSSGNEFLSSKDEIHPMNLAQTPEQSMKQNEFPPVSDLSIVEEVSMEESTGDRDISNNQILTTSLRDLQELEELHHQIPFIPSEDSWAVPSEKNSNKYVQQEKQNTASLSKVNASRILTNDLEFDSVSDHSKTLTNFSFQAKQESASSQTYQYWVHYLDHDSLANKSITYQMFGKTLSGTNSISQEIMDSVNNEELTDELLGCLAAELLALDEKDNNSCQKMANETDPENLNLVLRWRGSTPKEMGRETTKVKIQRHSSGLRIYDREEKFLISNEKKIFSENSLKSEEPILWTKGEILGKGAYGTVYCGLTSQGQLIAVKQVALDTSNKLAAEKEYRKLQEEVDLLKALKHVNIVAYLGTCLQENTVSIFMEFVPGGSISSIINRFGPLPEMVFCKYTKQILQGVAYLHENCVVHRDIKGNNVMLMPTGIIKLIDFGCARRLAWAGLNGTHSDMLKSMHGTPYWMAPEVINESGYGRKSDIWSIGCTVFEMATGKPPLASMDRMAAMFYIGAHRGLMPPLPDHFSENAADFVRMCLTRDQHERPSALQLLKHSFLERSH
Assay: Commercial kinase activity assay (Millipore, 33P-ATP filter)
Format: biochemical
Details: 10 μM test compound
Description: LOK (h) was incubated with 8 mM MOPS pH 7.0, 0.2 mM EDTA, 250 μM […], 10 mM MgAcetate and [γ-^33P-ATP] (specific activity approx. 500 cpm/pmol, concentration as required). The reaction was initiated by the addition of the MgATP mix. After incubation for 40 minutes at room temperature, the reaction was stopped by the addition of 3% phosphoric acid solution. 10 μL of the reaction was then spotted onto a P30 filtermat and washed three times for 5 minutes in 75 mM phosphoric acid and once in methanol prior to drying and scintillation counting. PI3K p110β/p85α (h) PI3K (p110β/p85α) (h) was incubated in assay buffer containing 10 μM phosphatidylinositol-4,5-bisphosphate and MgATP (concentration as required). The reaction was initiated by the addition of the MgATP mix. After incubation for 30 minutes at room temperature, the reaction was stopped by the addition of stop solution containing EDTA and biotinylated phosphatidylinositol-3,4,5-trisphosphate. Finally, detection buffer was added, which contains europium-labelled anti-GST monoclonal antibody, GST-tagged GRP1 PH domain and streptavidinallophycocyanin. The plate was then read in time-resolved fluorescence mode and the homogenous time-resolved fluorescence (HTRF®) signal determined according to the formula HTRF=10000×(Em665nm/Em620 nm). YSK4 (h) YSK4 (h) was incubated with 8 mM MOPS pH 7.0, 0.2 mM EDTA, 250 […], 10 mM MgAcetate and [γ-^33P-ATP] (specific activity approx. 500 cpm/pmol, concentration as required). The reaction was initiated by the addition of the MgATP mix. After incubation for 40 minutes at room temperature, the reaction was stopped by the addition of 3% phosphoric acid solution. 10 μL of the reaction was then spotted onto a P30 filtermat and washed three times for 5 minutes in 75 mM phosphoric acid and once in methanol prior to drying and scintillation counting. PI4KA (PI4K alpha) The 2× PI4KA (PI4K alpha)/PI Lipid Kinase Substrate mixture was prepared in 20 mM Tris, pH 7.5, 0.4% Triton X-100, 5 mM MgCl2, 0.5 mM EGTA. The final 10 μL Kinase Reaction consisted of 75-300 ng PI4KA (PI4K alpha) and 100 μM PI Lipid Kinase Substrate in 7.5 mM HEPES, 10 mM Tris, pH 7.5, 0.2% Triton X-100, 2.5 mM MgCl2, 0.25 mM EGTA. After the 1 hour Kinase Reaction incubation, 5 μL of Detection Mix consisting of a europium labeled anti-ADP antibody, an Alexa Fluor® 647 labeled ADP tracer, and EDTA (to stop the kinase reaction) was added to the assay well. ADP formed by the kinase reaction (in the absence of an inhibitor) displaced the Alexa Fluor® 647 labeled ADP tracer from the antibody, resulting in a decrease in the TR-FRET signal. […] PI4KB (PI4K beta) The 2× PI4KB (PI4K beta)/PI Lipid Kinase Substrate mixture was prepared in 50 mM HEPES pH 7.5, 0.1% CHAPS, 1 mM EGTA, 4 mM MgCl2. […]

Nc1nc(N2CCN(C(=O)COc3ccc(Cl)cc3)CC2)c2nc(-c3cccnc3)sc2n1 [formula (1), 5-amino-7-[4-(4-chlorophenoxyacetyl)piperazin-1-yl]-2-(pyridin-3-yl)thiazolo[5,4-d]pyrimidine]
Kinase activity: 108 percentage of control
